Assay results as given in ChEMBL document CHEMBL4732114, “Design and structural optimization of novel 2H-benzo[h]chromene derivatives that target AcrB and reverse bacterial multidrug resistance” (Eur J Med Chem, 2021).
In brackets after ≈: the same amount, converted by molar mass.

Key:
[1] = molecular target: T1, Multidrug efflux pump subunit AcrB (Escherichia coli (strain K12)) (UniProt P31224); assay: Inhibition of AcrB in multidrug-resistant Escherichia coli BW25113 assessed as potentiation of levofloxacin-induced antibacterial activity by measuring levofloxacin MIC at 256 ug/ml by checkerboard titration method (reference value: 0.06 ug/ml); details: dose 256.0 µg/ml
T1 sequence (whole entry): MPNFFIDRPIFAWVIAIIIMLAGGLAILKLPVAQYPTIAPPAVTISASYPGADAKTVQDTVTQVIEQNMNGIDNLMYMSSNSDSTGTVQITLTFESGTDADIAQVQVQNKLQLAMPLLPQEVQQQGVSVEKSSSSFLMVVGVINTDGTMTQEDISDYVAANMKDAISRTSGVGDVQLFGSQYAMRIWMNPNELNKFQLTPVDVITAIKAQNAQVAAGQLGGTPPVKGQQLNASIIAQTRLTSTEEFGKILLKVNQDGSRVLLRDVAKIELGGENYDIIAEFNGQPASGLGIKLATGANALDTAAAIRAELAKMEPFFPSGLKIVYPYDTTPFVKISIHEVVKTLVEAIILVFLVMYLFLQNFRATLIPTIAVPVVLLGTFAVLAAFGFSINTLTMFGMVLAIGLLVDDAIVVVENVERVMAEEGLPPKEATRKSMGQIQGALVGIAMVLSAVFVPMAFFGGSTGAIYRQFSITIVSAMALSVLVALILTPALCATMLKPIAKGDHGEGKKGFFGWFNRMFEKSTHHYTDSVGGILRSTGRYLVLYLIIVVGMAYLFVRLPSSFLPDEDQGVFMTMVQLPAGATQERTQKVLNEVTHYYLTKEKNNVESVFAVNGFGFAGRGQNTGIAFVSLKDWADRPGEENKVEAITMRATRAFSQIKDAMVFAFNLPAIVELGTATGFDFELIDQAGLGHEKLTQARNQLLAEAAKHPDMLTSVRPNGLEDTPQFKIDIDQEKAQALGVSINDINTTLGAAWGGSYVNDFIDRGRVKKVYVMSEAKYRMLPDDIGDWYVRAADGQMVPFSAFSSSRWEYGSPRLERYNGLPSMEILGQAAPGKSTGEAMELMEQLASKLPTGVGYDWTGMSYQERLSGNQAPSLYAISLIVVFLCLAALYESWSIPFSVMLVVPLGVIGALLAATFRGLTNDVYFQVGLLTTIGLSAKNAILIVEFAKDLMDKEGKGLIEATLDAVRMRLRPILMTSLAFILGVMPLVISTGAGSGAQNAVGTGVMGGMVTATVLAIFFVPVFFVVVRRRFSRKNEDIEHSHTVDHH

[2] = molecular target: T1, Multidrug efflux pump subunit AcrB (Escherichia coli (strain K12)); assay: Inhibition of AcrB in multidrug-resistant Escherichia coli BW25113 assessed as potentiation of tetraphenylphosphonium-induced antibacterial activity by measuring tetraphenylphosphonium MIC at 512 ug/ml by checkerboard titration method (reference value: 1024 ug/ml); details: dose 512.0 µg/ml
[3] = molecular target: T1, Multidrug efflux pump subunit AcrB (Escherichia coli (strain K12)); details: Escherichia coli BW25113; dose 256.0 µg/ml
[4] = molecular target: T1, Multidrug efflux pump subunit AcrB (Escherichia coli (strain K12)); assay: Inhibition of AcrB in multidrug-resistant Escherichia coli BW25113 assessed as potentiation of chloramphenicol-induced antibacterial activity by measuring chloramphenicol MIC at 256 ug/ml by checkerboard titration method (reference value: 8 ug/ml); details: dose 256.0 µg/ml
[5] = molecular target: T1, Multidrug efflux pump subunit AcrB (Escherichia coli (strain K12)); assay: Inhibition of AcrB in multidrug-resistant Escherichia coli BW25113 assessed as potentiation of tetraphenylphosphonium-induced antibacterial activity by measuring tetraphenylphosphonium MIC at 256 ug/ml by checkerboard titration method (reference value: 1024 ug/ml); details: dose 256.0 µg/ml
[6] = molecular target: T1, Multidrug efflux pump subunit AcrB (Escherichia coli (strain K12)); details: Escherichia coli BW25113; dose 512.0 µg/ml
[7] = molecular target: T1, Multidrug efflux pump subunit AcrB (Escherichia coli (strain K12)); assay: Inhibition of AcrB in multidrug-resistant Escherichia coli BW25113 assessed as potentiation of levofloxacin-induced antibacterial activity by measuring levofloxacin MIC at 512 ug/ml by checkerboard titration method (reference value: 0.06 ug/ml); details: dose 512.0 µg/ml
[8] = molecular target: T1, Multidrug efflux pump subunit AcrB (Escherichia coli (strain K12)); assay: Inhibition of AcrB in multidrug-resistant Escherichia coli BW25113 assessed as potentiation of chloramphenicol-induced antibacterial activity by measuring chloramphenicol MIC at 512 ug/ml by checkerboard titration method (reference value: 8 ug/ml); details: dose 512.0 µg/ml
[9] = molecular target: T1, Multidrug efflux pump subunit AcrB (Escherichia coli (strain K12)); assay: Inhibition of AcrB in multidrug-resistant Escherichia coli BW25113 assessed as potentiation of erythromycin-induced antibacterial activity by measuring erythromycin MIC at 256 ug/ml by checkerboard titration method (reference value: 64 ug/ml); details: dose 256.0 µg/ml
[10] = molecular target: T1, Multidrug efflux pump subunit AcrB (Escherichia coli (strain K12)); assay: Inhibition of AcrB in multidrug-resistant Escherichia coli BW25113 assessed as potentiation of erythromycin-induced antibacterial activity by measuring erythromycin MIC at 512 ug/ml by checkerboard titration method (reference value: 64 ug/ml); details: dose 512.0 µg/ml

SMILES: CC(C)CCOc1cc(C(N)=O)cc2ccccc12
- MIC [1]: 0.06 µg/mL
- MIC [2]: 256 µg/mL
- MIC [3]: 16 µg/mL (≈ 62.2 µM)
- MIC [4]: 8 µg/mL
- MIC [5]: 512 µg/mL
- MIC [6]: 16 µg/mL (≈ 62.2 µM)
- MIC [7]: 0.06 µg/mL
- MIC [8]: 4 µg/mL
- MIC [9]: 64 µg/mL
- MIC [10]: 32 µg/mL
